Results on 22 compounds are retold here after patent US5618812A, “Benzodiazepine derivatives” (Merck Sharp & Dohme, Ltd., priority 1992, dated 1997).

The target of one assay is T1, CCK-A (Rattus norvegicus, UniProt P30551).
T1 sequence (P30551 1-444): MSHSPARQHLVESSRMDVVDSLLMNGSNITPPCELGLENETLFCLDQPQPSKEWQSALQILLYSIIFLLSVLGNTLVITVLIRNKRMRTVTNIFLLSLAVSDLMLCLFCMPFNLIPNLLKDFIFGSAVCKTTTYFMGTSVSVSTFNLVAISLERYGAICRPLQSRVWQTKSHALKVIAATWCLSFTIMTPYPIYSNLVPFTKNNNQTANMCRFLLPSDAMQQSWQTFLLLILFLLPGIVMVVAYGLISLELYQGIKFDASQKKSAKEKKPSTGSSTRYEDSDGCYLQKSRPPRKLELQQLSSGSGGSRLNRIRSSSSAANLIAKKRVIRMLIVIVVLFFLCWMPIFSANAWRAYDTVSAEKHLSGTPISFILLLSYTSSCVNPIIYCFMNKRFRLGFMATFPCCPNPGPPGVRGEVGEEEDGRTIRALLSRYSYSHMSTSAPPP
The assay is described as follows: biochemical. In kind it is binding. The note with it: rat pancreas (CCK-A), 125I-CCK; read-out: CCK RECEPTOR BINDING RESULTS IC50 125I-CCK Pancreas. The protocol: The CCK-A and CCK-B antagonising activity of the compounds described herein was evaluated using the assays described in published European patent application no. 0514133. The method essentially involves determining the concentration of the test compound required to displace 50% of the specific ^125 I-CCK from rat pancreas (CCK-A) or guinea pig brain (CCK-B).

Another assay addresses T2, CCK-B (Cavia porcellus, UniProt H0VZC5).
T2 construct: guinea pig brain (CCK-B); from tissue; host or cells: guinea pig brain
T2 sequence (H0VZC5 1-426): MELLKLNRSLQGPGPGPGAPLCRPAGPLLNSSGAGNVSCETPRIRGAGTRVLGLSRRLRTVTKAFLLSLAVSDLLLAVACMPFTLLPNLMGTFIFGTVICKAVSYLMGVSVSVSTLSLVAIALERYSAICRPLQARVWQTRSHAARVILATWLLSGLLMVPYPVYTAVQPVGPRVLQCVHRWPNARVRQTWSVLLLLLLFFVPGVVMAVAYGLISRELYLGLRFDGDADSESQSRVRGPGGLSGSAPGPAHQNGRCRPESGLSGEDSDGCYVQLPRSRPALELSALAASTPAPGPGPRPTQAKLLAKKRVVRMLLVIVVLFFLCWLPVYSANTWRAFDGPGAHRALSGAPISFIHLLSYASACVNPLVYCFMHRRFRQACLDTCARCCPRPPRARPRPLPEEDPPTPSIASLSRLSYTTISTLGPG
The assay is described as follows: displacement of specific 125I-CCK from guinea pig brain (CCK-B receptor binding). The note with it: read-out: CCK RECEPTOR BINDING RESULTS IC50 125I-CCK Brain. As to the method:
The CCK-A and CCK-B antagonising activity of the compounds described herein was evaluated using the assays described in published European patent application no. 0514133. The method essentially involves determining the concentration of the test compound required to displace 50% of the specific ^125 I-CCK from rat pancreas (CCK-A) or guinea pig brain (CCK-B). The data in Table 1 were obtained for compounds of the Examples.

Structures can show the parent of a compound that is named as a salt.

By IC50 is commonly meant the concentration at which inhibition is half-maximal. As to `CCCN1C(=O)C(NC(=O)Nc2cccc(C)c2)N=C(N(C)C2CCCCC2)c2ccccc21` (racemic) [Example 60, N-[3(R,S)-5-(N-Cyclohexyl-N-methylamino)-2,3-dihydro-2-oxo-1-propyl-1H-1,4-benzodiazepin-3-yl]-N'-[3-methylphenyl]urea], the half-inhibitory concentration (IC50) at CCK-A is 186 nM; at CCK-B it was 2.56 nM.

Turning to `Cc1cccc(NC(=O)NC2N=C(N(C)C3CCCCC3)c3ccccc3N(C)C2=O)c1` (racemic) [Example 63, N-[3(R,S)-5-(N-Cyclohexyl-N-methylamino)-2,3-dihydro-1-methyl-2-oxo-1H-1,4-benzodiazepin-3-yl]-N'-[3-methylphenyl]urea], the IC50 came to 304 nM on CCK-A and 1.36 nM on CCK-B.

For `Cc1cccc(NC(=O)NC2N=C(N(C)C3CCCCCC3)c3ccccc3N(C)C2=O)c1` (racemic) [Example 66, N-[3(R,S)-5-(N-Cycloheptyl-N-methylamino)-2,3-dihydro-1-methyl-2-oxo-1H-1,4-benzodiazepin-3-yl]-N'-[3-methylphenyl]urea], the IC50 at CCK-A is 83.6 nM; at CCK-B it was 0.79 nM.

As to `CN1C(=O)C(NC(=O)Nc2ccc3c(c2)CCC3)N=C(N(C)C2CCCCCC2)c2ccccc21` (racemic) [Example 69, N-[3(R,S)-5-(N-Cycloheptyl-N-methylamino)-2,3-dihydro-1-methyl-2-oxo-1H-1,4-benzodiazepin-3-yl]-N'-[5-indanyl]urea], the values for the IC50 at CCK-A and on CCK-B were 469 nM and 2.82 nM, respectively.

As for `Cc1cccc(NC(=O)NC2N=C(N(C)Cc3ccccc3)c3ccccc3N(C)C2=O)c1` (racemic) [Example 72, N-[3(R,S)-5-(N-Benzyl-N-methylamino)-2,3-dihydro-1-methyl-2-oxo-1H-1,4-benzodiazepin-3-yl]-N'-[3-methylphenyl]urea], the IC50 on CCK-A is 176 nM; at CCK-B, 10.3 nM.

With `Cc1cccc(NC(=O)NC2N=C(N(C)C3CCN(C)CC3)c3ccccc3N(C)C2=O)c1` (racemic) [Example 73, N-[3(R,S)-5-(N-(4-N-Methylpiperidinyl)-N-methylamino)-2,3-dihydro-1-methyl-2-oxo-1H-1,4-benzodiazepin-3-yl]-N'-[3-methylphenyl]urea], the IC50 was more than 3000 nM at CCK-A and 1410 nM at CCK-B.

As to `Cc1cccc(NC(=O)NC2N=C(N(C)CC3CCCCC3)c3ccccc3N(C)C2=O)c1` (racemic) [Example 74], the half-maximal inhibitory concentration (IC50) at CCK-A worked out at 192 nM; at CCK-B it was 7.3 nM.

On to `CCCN(CCC)C1=NC(NC(=O)Nc2cccc(C)c2)C(=O)N(C)c2ccccc21` (racemic) [Example 75, N-[3(R,S)-5-(N,N-Di-^npropylamino)-2,3-dihydro-1-methyl-2-oxo-1H-1,4-benzodiazepin-3-yl]-N-[3-methylphenyl]urea], for which the IC50 was determined as 314 nM at CCK-A and 46.9 nM on CCK-B.

For `CCN(C1=NC(NC(=O)Nc2cccc(C)c2)C(=O)N(C)c2ccccc21)C1CCCC1` (racemic) [Example 76, N-[3(R,S)-5-(N-Cyclopentyl-N-ethylamino)-2,3-dihydro-1-methyl-2-oxo-1H-1,4-benzodiazepin-3-yl]-N'-[3-methylphenyl]urea], the half-inhibitory concentration (IC50) on CCK-A was determined as 760 nM; on CCK-B it was 3.12 nM.

For `Cc1cccc(NC(=O)NC2N=C(N(C)C3CCC(C)(C)CC3)c3ccccc3N(C)C2=O)c1` (racemic) [Example 77, N-[3(R,S)-5-(N-(4,4-Dimethylcyclohexyl)-N-methylamino)-2,3-dihydro-1-methyl-2-oxo-1H-1,4-benzodiazepin-3-yl]-N'-[3-methylphenyl]urea], the figures for the 50% inhibitory concentration (IC50) on CCK-A and on CCK-B were 135 nM and 81.1 nM, respectively.

For the compound `CCN(C1=NC(NC(=O)Nc2cccc(C)c2)C(=O)N(C)c2ccccc21)C1CCCCC1` (racemic) [Example 78, N-[3(R,S)-5-(N-Cyclohexyl-N-ethylamino)-2,3-dihydro-1-methyl-2-oxo-1H-1,4-benzodiazepin-3-yl]-N'-3-methylphenyl]urea], the IC50 at CCK-A stood at 891 nM; at CCK-B, 4.5 nM.

For `CCCN(C1=NC(NC(=O)Nc2cccc(C)c2)C(=O)N(C)c2ccccc21)C1CCCCC1` (racemic) [Example 79, N-[3(R,S)-5-(N-Cyclohexyl-N-propylamino)-2,3-dihydro-1-methyl-2-oxo-1H-benzodiazepin-3-yl]-N'-[3-methylphenyl]urea], the IC50 at CCK-A came out at 1700 nM; at CCK-B, 13.4 nM.

Regarding `Cc1cccc(NC(=O)NC2N=C(N(Cc3ccccc3)C3CCCCC3)c3ccccc3N(C)C2=O)c1` (racemic) [Example 80, N-[3(R,S)-5-(N-Benzyl-N-cyclohexylamino)-2,3-dihydro-1-methyl-2-oxo-1H-1,4-benzodiazepin-3-yl]-N'-[3-methylphenyl]urea], the IC50 was determined as 1140 nM on CCK-A and 32.4 nM on CCK-B.

As to `Cc1cccc(NC(=O)NC2N=C(NC3CCCCC3)c3ccccc3N(C)C2=O)c1` (racemic) [Example 81, N-[3(R,S)-5(N-Cyclohexylamino)-2,3-dihydro-1-methyl-2-oxo-1H-1,4-benzodiazepin-3-yl]-N'-[3-methylphenyl]urea], the figures for the half-inhibitory concentration (IC50) on CCK-A and at CCK-B were 14.9 nM and 23.2 nM, respectively.

`CN1C(=O)C(NC(=O)Nc2ccc3c(c2)CCC3)N=C(N(C)C2CCCCC2)c2ccccc21` (racemic) [Example 82, N-[3(R,S)-5-(N-Cyclohexyl-N-methylamino)-2,3-dihydro-1-methyl-2-oxo-1H-1,4-benzodiazepin-3-yl]-N'-[5-indanyl]urea]: the figures for the 50% inhibitory concentration (IC50) at CCK-A and at CCK-B were 815 nM and 0.47 nM, respectively.

`Cc1cccc(NC(=O)NC2N=C(N(C)C3CCCCCCC3)c3ccccc3N(C)C2=O)c1` (racemic) [Example 83, N-[3(R,S)-5-(N-Cyclooctyl-N-methylamino)-2,3-dihydro-1-methyl-2-oxo-1H-1,4-benzodiazepin-3-yl]-N'-[3-methylphenyl]urea]: the IC50 at CCK-A worked out at 283 nM; at CCK-B it was 3.67 nM.

Regarding `Cc1cccc(NC(=O)NC2N=C(NCCN(C)C)c3ccccc3N(C)C2=O)c1` (racemic) [Example 84, N-[3(R,S)-2,3-Dihydro-5-(2-(N,N-dimethylamino)ethylamino)-1-methyl-2-oxo-1H-1,4-benzodiazepin-3-yl]-N'-[3-methylphenyl]urea dihydrochloride], the IC50 on CCK-A was more than 3000 nM; on CCK-B, 1900 nM.

Turning to `Cc1cccc(NC(=O)NC2N=C(N(C)CCN3CCOCC3)c3ccccc3N(C)C2=O)c1` (racemic) [Example 85, N-[3(R,S)-2,3-Dihydro-5-(N-(2-N-morpholinoethyl)-N-methylamino)-1-methyl-2-oxo-1H-1,4-benzodiazepin-3-yl]-N'-[3-methylphenyl]urea], the values for the half-inhibitory concentration (IC50) at CCK-A and at CCK-B were more than 3000 nM and 785 nM, respectively.

On to `Cc1cncc(NC(=O)NC2N=C(N(C)C3CCCCCC3)c3ccccc3N(C)C2=O)c1` (racemic) [Example 86, N-[3(R,S)-5-(N-Cycloheptyl)-N-methylamino)-2,3-dihydro-1-methyl-2-oxo-1H-1,4-benzodiazepin-3-yl]-N'-[3-(5-methylpyridine)]urea], for which the IC50 on CCK-A came out at 831 nM; on CCK-B, 31.3 nM.

`CN1C(=O)C(NC(=O)c2cc3ccccc3[nH]2)N=C(N2CC3CCC(CC3)C2)c2ccccc21` (racemic) [Example 87, 3(R,S)-N-(5-(3-Azabicyclo[3,2,2]nonan-3-yl)-2,3-dihydro-1-methyl-2-oxo-1H-1,4-benzodiazepin-3-yl)-1H-indole-2-carboxamide]: the IC50 on CCK-A came to 0.87 nM; on CCK-B, 509 nM.

For `CC(C)CN1C(=O)C(NC(=O)c2cc3ccccc3[nH]2)N=C(N2CCCCCC2)c2ccccc21` (racemic) [Example 90, 3(R,S)-N-(2,3-Dihydro-5-(homopiperidin-1-yl)-1-(2-methylpropyl)-2-oxo-1H-1,4-benzodiazepin-3-yl)-1H-indole-2-carboxamide], the IC50 worked out at 8.7 nM at CCK-A and 225 nM on CCK-B.

With `CC(C)CN1C(=O)C(NC(=O)Cc2c[nH]c3ccccc23)N=C(N2CCCCCC2)c2ccccc21` (racemic) [Example 94, 3(R,S)-N-(2,3-Dihydro-5-(homopiperidin-1-yl)-1-(2-methylpropyl)-2-oxo-1H-1,4-benzodiazepin-3-yl)-1H-indole-3-acetamide], the figures for the IC50 at CCK-A and at CCK-B were 646 nM and 119 nM, respectively.
